Among the test systems are Escherichia coli D31; Listeria grayi DSM 20601; Escherichia coli UB1005; Escherichia coli K99; Escherichia coli K88; Pseudomonas aeruginosa 1; Enterococcus faecalis; Acinetobacter baumannii; Staphylococcus aureus; Pseudomonas aeruginosa; Escherichia coli; Bacillus subtilis.
Common to all, as to test: ≥ marks a high value that may be exact or a test limit, other limits are often not marked, values filed in µg/mL are converted to µM
In assay [1] the test system is Listeria fleischmannii DSM 24998.
Assay [2] relates to Micrococcus luteus DSM 20030.
The subject of assay [3] is Listeria monocytogenes DSM 20600.
Assay [4] has as its system Salmonella typhimurium KCTC 1926.
The subject of assay [5] is Pseudomonas aeruginosa DSM 1117.
The test system of assay [6] is Pseudomonas aeruginosa KCTC 1637.
Assay [7] relates to Bacillus subtilis KCTC 3068.
Assay [8] has as its system Staphylococcus epidermidis KCTC 1917.
In assay [9] the test system is Staphylococcus aureus DSM 1104.
Assay [10] has as its system Escherichia coli KCTC 1682.
Assay [11] relates to Staphylococcus aureus KCTC 1621.
In assay [12] the test system is Escherichia coli DSM 1103.
The test system of assay [13] is Staphylococcus epidermidis DSM 1798.
Assay [14] has as its system Pseudomonas aeruginosa ATCC 27853.
In assay [15] the test system is Lacticaseibacillus rhamnosus 1.0936.
Assay [16] concerns Lacticaseibacillus rhamnosus 7469.
For assay [17], the system named is Staphylococcus aureus ATCC 43300.
For assay [18], the system named is Salmonella enterica subsp. enterica serovar Typhimurium ATCC 14028.
Assay [19] concerns Salmonella enterica subsp. enterica serovar Pullorum C79-13.
Assay [20] has as its system Salmonella enterica subsp. enterica serovar Typhimurium C77-31.
Assay [21] deals with Lactiplantibacillus plantarum 8014.
In assay [22] the test system is Escherichia coli ATCC 25922.
In assay [23] the test system is Lacticaseibacillus rhamnosus 1.0385.
Assay [24] concerns Lacticaseibacillus rhamnosus 1.0911.
Assay [25] deals with Enterococcus faecalis ATCC 29212.
The test system of assay [26] is Staphylococcus aureus ATCC 25923.
The test system of assay [27] is Streptococcus pyogenes ATCC 19615.
Assay [28] concerns Klebsiella pneumoniae ATCC 13883.

Converted amounts (≈) assume the structure as drawn. “And” between values parts separate entries of the source, which are not always exact repeats. Equal entries are not always repeated.

We go through 7 compounds from DBAASP.

For orientation: MIC means the least concentration at which growth counts as inhibited. A higher MIC goes with a less susceptible organism. For the compound `CC[C@H](C)[C@H](NC(=O)[C@H](C)NC(=O)[C@H](CC(N)=O)NC(=O)[C@H](CCCCN)NC(=O)[C@@H](NC(=O)CNC(=O)[C@H](CCC(=O)O)NC(=O)[C@H](Cc1c[nH]c2ccccc12)NC(=O)[C@H](CC(C)C)NC(=O)[C@H](CCCCN)NC(=O)CNC(=O)[C@H](Cc1c[nH]c2ccccc12)NC(=O)[C@H](Cc1ccccc1)NC(=O)CN)C(C)C)C(=O)N[C@@H](CCCCN)C(=O)N[C@@H](CCCCN)C(=O)N[C@@H](CCCCN)C(N)=O` [GFWGKLWEGVKNAIKKK], the MIC is 1 µM (≈ 1.99 µg/mL) in [1]; 4 µM (≈ 7.95 µg/mL) against Escherichia coli D31; 0.25 µM (≈ 0.497 µg/mL) in [2]; 2 µM (≈ 3.98 µg/mL) in assay [3]; 1 µM (≈ 1.99 µg/mL) against Listeria grayi DSM 20601.

With `NCCCC[C@H](NC(=O)[C@H](CCCN=C(N)N)NC(=O)CN)C(=O)N[C@@H](CCCCN)C(=O)N[C@@H](CCCN=C(N)N)C(=O)N[C@@H](CCCN=C(N)N)C(=O)N[C@@H](CCC(N)=O)C(=O)N[C@@H](CCCN=C(N)N)C(=O)N[C@@H](CCCN=C(N)N)C(=O)N[C@@H](CCCN=C(N)N)C(=O)N1CCC[C@H]1C(=O)N1CCC[C@H]1C(=O)N[C@@H](CCC(N)=O)C(=O)O` [GRKKRRQRRRPPQ], the MIC in [4] was 8 µM (≈ 13.8 µg/mL); in assay [5], no less than 128 µM; in assay [6], 4 µM (≈ 6.88 µg/mL); in assay [7] it was 4 µM (≈ 6.88 µg/mL); in [8], 4 µM (≈ 6.88 µg/mL); in assay [9] it was no less than 128 µM. Also, the MIC was 2 µM (≈ 3.44 µg/mL) in assay [10], 4 µM (≈ 6.88 µg/mL) in [11], no less than 128 µM in assay [12] and no less than 128 µM in [13].

In the case of `CC[C@H](C)[C@H](NC(=O)[C@H](C)NC(=O)[C@H](CCCCN)NC(=O)[C@H](CCCCN)NC(=O)[C@@H](NC(=O)[C@@H]1CCCN1C(=O)[C@H](CCCCN)NC(=O)[C@H](Cc1c[nH]c2ccccc12)NC(=O)[C@H](CC(C)C)NC(=O)[C@H](CCCCN)NC(=O)CNC(=O)[C@H](Cc1c[nH]c2ccccc12)NC(=O)[C@H](Cc1ccccc1)NC(=O)CN)C(C)C)C(N)=O` [GFWGKLWKPVKKAI], the MIC in [1] amounted to 15 µM (≈ 24.9 µg/mL); in assay [2], 2 µM (≈ 3.31 µg/mL); in assay [3], 30 µM (≈ 49.7 µg/mL); against Listeria grayi DSM 20601 it was 8 µM (≈ 13.3 µg/mL).

Consider `NC(=O)[C@H](CCCN=C(N)N)NC(=O)[C@H](CCCN=C(N)N)NC(=O)[C@H](Cc1c[nH]c2ccccc12)NC(=O)[C@H](Cc1c[nH]c2ccccc12)NC(=O)[C@H](Cc1c[nH]c2ccccc12)NC(=O)[C@@H](N)CCCN=C(N)N` [RWWWRR], for which the MIC was greater than 64 µM in [14]; no less than 32 µM with Escherichia coli UB1005; no less than 32 µM with Escherichia coli K99; no less than 64 µM in assay [15]; no less than 32 µM in the assay with Escherichia coli K88; no less than 64 µM in [16]. The MIC in assay [17] is 8 µM (≈ 8.35 µg/mL); in assay [18] it was greater than 64 µM; in [19], no less than 64 µM; in assay [20] it was no less than 64 µM; in assay [21], no less than 64 µM; in [22] it was 23.9 µM and 32 µM. The MIC in assay [23] and in assay [24] was no less than 64 µM throughout.

Regarding `CC(C)C[C@H](NC(=O)[C@H](CC(C)C)NC(=O)[C@H](CCCCN)NC(=O)[C@H](CCCCN)NC(=O)[C@H](CC(C)C)NC(=O)[C@H](CCCCN)NC(=O)[C@H](CCCCN)NC(=O)[C@H](CC(C)C)NC(=O)[C@H](CC(C)C)NC(=O)[C@H](CCCCN)NC(=O)[C@H](CCCN=C(N)N)NC(=O)[C@H](Cc1c[nH]c2ccccc12)NC(=O)[C@H](CCCCN)NC(=O)[C@@H](N)CCCCN)C(N)=O` [KKWRKLLKKLKKLL], the MIC was determined as 1.55 µM (≈ 2.83 µg/mL) against Pseudomonas aeruginosa 1; 0.658 µM (≈ 1.2 µg/mL) in the assay with Enterococcus faecalis; 0.548 µM (≈ 0.999 µg/mL) in the assay on Acinetobacter baumannii; 1.1 µM (≈ 2 µg/mL) with Staphylococcus aureus; 0.548 µM (≈ 0.999 µg/mL) with Pseudomonas aeruginosa.

Turning to `CC(C)C[C@H](NC(=O)[C@H](C)NC(=O)[C@H](CCCN=C(N)N)NC(=O)[C@H](CC(C)C)NC(=O)[C@H](C)NC(=O)[C@H](CC(C)C)NC(=O)[C@H](CCCN=C(N)N)NC(=O)[C@H](CC(C)C)NC(=O)[C@H](C)NC(=O)[C@H](CC(C)C)NC(=O)[C@@H](N)CCCN=C(N)N)C(=O)N[C@@H](CCCN=C(N)N)C(=O)N[C@@H](C)C(=O)N[C@@H](C)C(=O)N[C@@H](CC(C)C)C(=O)N[C@@H](CCCN=C(N)N)C(=O)N[C@@H](CC(C)C)C(=O)N[C@@H](C)C(N)=O` [RLALRLALRALRAALRLA], the MIC was no less than 115 µM in assay [5], 29 µM (≈ 58.5 µg/mL) in assay [9], no less than 57 µM in assay [12] and 4 µM (≈ 8.07 µg/mL) in assay [13].

`CC(C)C[C@H](NC(=O)[C@H](Cc1c[nH]c2ccccc12)NC(=O)[C@H](CCC(N)=O)NC(=O)[C@@H](NC(=O)[C@H](CCC(N)=O)NC(=O)[C@@H]1CCCN1C(=O)[C@H](CCC(=O)O)NC(=O)[C@H](CCCN=C(N)N)NC(=O)[C@@H](N)CCC(N)=O)C(C)C)C(=O)N[C@@H](CCC(=O)O)C(=O)N[C@@H](CCC(N)=O)C(=O)N[C@@H](CCC(N)=O)C(=O)N[C@H](C(=O)N[C@@H](C)C(=O)N[C@@H](CCCCN)C(=O)N[C@@H](CCCN=C(N)N)C(=O)N[C@@H](CCCN=C(N)N)C(=O)N[C@H](C(=O)N[C@@H](CCCCN)C(=O)N[C@@H](CCCN=C(N)N)C(=O)O)[C@@H](C)O)C(C)C` [QREPQVQWLEQQVAKRRTKR]: the MIC in assay [25] was greater than 100 µM; in assay [14] it was greater than 100 µM; in the assay with Escherichia coli, greater than 100 µM; against Bacillus subtilis, no less than 100 µM; in assay [18], greater than 100 µM; in [26] it was greater than 100 µM. The MIC in assay [27] and in assay [28] was no less than 100 µM throughout.
